In this experiment the target is T1, SpG6PD1 (Sphingomonas sp. PAMC 26621, UniProt Z9Q3C2ML64).
T1 construct: cloning primer appears to add Gly after Met1 (ATGGGGCCAATC); 56 kDa on SDS-PAGE; tag removal not mentioned
T1 sequence (Z9Q3C2ML64 1-488): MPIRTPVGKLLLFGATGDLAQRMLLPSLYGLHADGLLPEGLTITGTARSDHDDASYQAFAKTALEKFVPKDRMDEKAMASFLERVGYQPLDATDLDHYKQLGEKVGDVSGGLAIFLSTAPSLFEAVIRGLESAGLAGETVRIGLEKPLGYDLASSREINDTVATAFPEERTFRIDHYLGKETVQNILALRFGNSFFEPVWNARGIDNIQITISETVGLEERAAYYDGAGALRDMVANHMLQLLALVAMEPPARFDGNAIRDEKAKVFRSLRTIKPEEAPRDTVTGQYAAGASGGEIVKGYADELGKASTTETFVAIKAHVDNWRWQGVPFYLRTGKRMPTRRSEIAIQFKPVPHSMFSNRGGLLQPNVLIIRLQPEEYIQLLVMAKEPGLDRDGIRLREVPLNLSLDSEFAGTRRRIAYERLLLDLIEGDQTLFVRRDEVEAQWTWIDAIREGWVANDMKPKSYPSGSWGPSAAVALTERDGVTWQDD
Description: NAD(P)H formation at […] nm, Lineweaver-Burk. It is filed as biochemical. To be noted: NADP+ as co-substrate (assay mixture 100 µM); G6P varied 500-2000 µM; 50 mM Tris-HCl pH 8.0, 25 mM NaCl, 0.1 mM EDTA, 5% glycerol; 30 °C.

SMILES strings stand for the structures.

For `O=P(O)(O)OC[C@H]1OC(O)[C@H](O)[C@@H](O)[C@@H]1O` (stereo partly shown) [glucose 6-phosphate], the Km was found to be 145 ± 2 µM.

These data come from article PMC6471386, “Cloning, Expression, and Characterization of a Psychrophilic Glucose 6-Phosphate Dehydrogenase from Sphingomonas sp. PAMC 26621” (International Journal of Molecular Sciences, 2019).
